Source: patent US4452793A, “29-Fluorophytosterol termiticides, compositions and methods of use therefor” (The Research Foundation of State University of New York, priority 1983, dated 1984)
Converted amounts (≈) assume the structure as drawn.

Tests used:
[1] = test system: Manduca sexta; assay: Sterol distribution in experimental hornworms (capillary GC of gut-purged prepupae); format: in vivo, tobacco hornworm (Manduca sexta); conditions: fed at 50 ppm in diet; mean relative area % of GC, 4 hornworms, S.D. in parentheses
Method: (§1) The recrystallized 29-fluorosterols are dissolved in dichloromethane and then coated onto the wheat germ to give a final concentration to 50 ppm (w/v) in the articifical diet. Controls receive either 50 ppm of stigmasterol or no additional sterols. The dose are varied in subsequent experiments. Twenty first instar tobacco hornworms larvae (Manduca sexta, seventh day after egg collection) are then placed on a 0.5-g slab of diet in a 1-oz dish; this is designated as Day 0 of feeding. Larvae were maintained at 65% relative humidity and 26° C. on a 17L/7D long day light regime. Diets are changed and larvae are weighed and staged daily. The mean survival, weight gain, and developmental periods of the experimental hornworms are shown relative to a group of twenty control larvae in FIG. 1.
Four gut-purged prepupae from each experiment are frozen and later are analyzed individually for sterol composition. Each hornworm is homogenized (1:1 chloroform-methanol), the lipids is saponified, and the non-saponifiable lipis are chromatographed to give the sterol fraction. Analysis by capillary GC (Durabon DB-5 or DB-1701) allowed resolution an accurate quantification of cholesterol, desmosterol, campesterol, stiosterol and fucosterol from test insects. The results, present in Table 1, illustrate the insect metabolism.

[2] = test system: Manduca sexta; assay: Insecticide bioassay of 29-fluorophytosterols in tobacco hornworm larvae (artificial diet); format: in vivo, tobacco hornworm (Manduca sexta); conditions: for LC50: Manduca sexta, po, 504 h, day 21, read-out: Dose for 50% reduction, survival (larvae, day 21) (LC50); for LC50 / Dose for 50% reduction, maximum larval weight (EC50) / Dose for 50% reduction, pupation (EC50): parts per million (w/v) in the final diet
Method: as §1
Inequality signs indicate that the effect indicated was beyond the range of doses tested and could not be reliably obtained by extrapolation of the log concentration vs. probit response plots. All values are reported as parts per million (w/v) in the final diet.

Compound: CC(C)[C@@H](CCF)CC[C@@H](C)[C@H]1CC[C@H]2[C@@H]3CC=C4C[C@@H](O)CC[C@]4(C)[C@H]3CC[C@]12C [29-fluoroclionosterol]
- Relative percent sterol: campesterol [1]: 9.5(1) %
- Relative percent sterol: cholesterol [1]: 82.5(2) %
- Relative percent sterol: desmosterol [1]: 2.0(2) %
- Relative percent sterol: sitosterol [1]: 5.9(1) %

Compound: CC(C)/C(=C/CF)CC[C@@H](C)[C@H]1CC[C@H]2[C@@H]3CC=C4C[C@@H](O)CC[C@]4(C)[C@H]3CC[C@]12C [29-fluorofucosterol]
- Relative percent sterol: campesterol [1]: 10.0(2) %
- Relative percent sterol: cholesterol [1]: 82.2(2) %
- Relative percent sterol: desmosterol [1]: 1.0(1) %
- Relative percent sterol: sitosterol [1]: 5.8(2) %
- LC50 [2]: 48 µg/mL (≈ 111 µM)
- Dose for 50% reduction, maximum larval weight (EC50) [2]: 26 ppm
- Dose for 50% reduction, pupation (EC50) [2]: 31 ppm

Compound: CC(C)[C@H](/C=C/[C@@H](C)[C@H]1CC[C@H]2[C@@H]3CC=C4C[C@@H](O)CC[C@]4(C)[C@H]3CC[C@]12C)CCF [29-fluoroporiferasterol]
- Relative percent sterol: campesterol [1]: 16.3(2) %
- Relative percent sterol: cholesterol [1]: 65.6(8) %
- Relative percent sterol: desmosterol [1]: 5.8(2) %
- Relative percent sterol: sitosterol [1]: 12.3(5) %

Compound: CC(C)[C@H](CCF)CC[C@@H](C)[C@H]1CC[C@H]2[C@@H]3CC=C4C[C@@H](O)CC[C@]4(C)[C@H]3CC[C@]12C [29-fluorositosterol]
- Relative percent sterol: campesterol [1]: 7.8(3) %
- Relative percent sterol: cholesterol [1]: 82.4(8) %
- Relative percent sterol: desmosterol [1]: 5.2(8) %
- Relative percent sterol: sitosterol [1]: 4.6(4) %
- LC50 [2]: 300 µg/mL (≈ 693 µM)
- Dose for 50% reduction, maximum larval weight (EC50) [2]: 110 ppm
- Dose for 50% reduction, pupation (EC50) [2]: 150 ppm

Compound: CC(C)[C@@H](/C=C/[C@@H](C)[C@H]1CC[C@H]2[C@@H]3CC=C4C[C@@H](O)CC[C@]4(C)[C@H]3CC[C@]12C)CCF [29-fluorostigmasterol]
- LC50 [2]: 4 µg/mL (≈ 9.29 µM)
- Survivors present for analysis ([2]; hornworms fed at 50 ppm): No survivors
- Dose for 50% reduction, maximum larval weight (EC50) [2]: 1 ppm
- Dose for 50% reduction, pupation (EC50) [2]: 1 ppm
